Values of other authors as cited in patent US20160347782A1, “4-methylcatechol Derivatives and Uses Thereof” (THANARES GMBH, priority 2011, published 2016).

What was measured:
[1] = tested on: normal human epidermal melanocytes
liver cells = liver cells in vitro; in the μmol range

SMILES: Cc1ccc(O)c(O)c1 [Example 4-MC, 4-Methylcatechol]
- Growth of normal human epidermal melanocytes [1]: without impairing
- Proliferation of melanoma cells (melanoma cells): inhibits
- Inhibition of hepatocellular cholesterol synthesis (liver cells): inhibits

SMILES: O=c1c(O)c(-c2ccc(O)c(O)c2)oc2cc(O)cc(O)c12 [quercetin]
- Inhibition of hepatocellular cholesterol synthesis (liver cells): inhibits
